≈ marks a conversion by molar mass, not a printed value. Entries after “also recorded” stand apart in the source; their conditions may differ. Like-named read-outs stand apart in the source and are kept apart here.
What was measured:
Solubility = assay type: physicochemical; conditions: for ADME Sol (μM): Table 3
[1] = Metabolic stability in mouse liver microsomes; assay type: in vitro ADME; conditions: mouse, liver microsomes
primary rat neurons = experiment: Modified MTT assay of Aβ toxicity in primary neurons; assay type: cell-based; conditions: for MTT: Table 3, Aβ toxicity in primary neurons; for Aβ toxicity / Aβ-induced membrane trafficking dysfunction, modified MTT assay: compound 0.3, 3 or 15 μM, 90-minute pretreatment, 2.5 μM Aβ, 24 hours
Text: Primary neuron cultures: All animal procedures were approved by the Institutional Animal Care and Use Committee at the University of Alabama at Birmingham (UAB). As before (Rush, et al. (2020) Neurobiol Dis 134, 104668; Voskobiynyk, et al. (2020) eLife 9, e57354), primary rat neurons were isolated from timed-pregnant Sprague-Dawley rats. Briefly, dams were euthanized with isoflurane anesthesia asphyxiation, and hippocampal tissue was isolated from E19 embryos in Hibernate E, then digested in papain for 10 minutes at 37° C. Neurons were triturated into a single cell suspension in Neurobasal supplemented with B-27, L-Glutamine, and 10% FBS, then plated in 96-well plates coated with PDL and laminin at 30,000 neurons per well in 200 uL medium or in 24-well coated plates with or without coverslips at 50,000 per well. Cultures were maintained at 37° C. with 5% CO2. Twenty-four hours after plating (DIV1), two 50% media changes with Neurobasal plus B-27 and L-Glutamine without FBS, and 5 μM cytosine β-D-arabinofuranoside was added to prevent glial proliferation. 50% media changes were performed at DIV7 and DIV14 with serum-free supplemented Neurobasal and experiments were started at DIV19.
Aβ oligomer preparation: As before (Rush, et al. (2020) Neurobiol Dis 134, 104668), lyophilized recombinant Aβ42 was dissolved in HFIP, dried overnight, then stored at −20° C. until oligomerization. To oligomerize, Aβ was dissolved in DMSO to 1 mM, then diluted to 100 µM in PBS, then sonicated and left on ice for 24 hours. Immediately prior to use, Aβ was centrifuged at 4° C. for 10 minutes at 14,000×g. Vehicle was prepared as well in identical fashion except lacking the Aβ peptide.
Aβ toxicity assays: The modified MTT and MAP2 assays were adapted from a recent study (Rush, et al. (2020) Neurobiol Dis 134, 104668). Briefly, at DIV19, media on the neurons was reduced to […], then compound was added to final concentration of 0 μM, 0.3 μM, 3 μM, or 15 μM with even amounts of DMSO. After 90-minute pretreatment with compound, 2.5 μM Aβ was added.
The modified MTT assay was performed 24 hours after Aβ application. 100 μM MTT was applied to neurons and incubated at 37° C. for one hour. Media was removed, then replaced with 15 μL 1.6% Tween20 in PBS and incubated on a shaker at 100 rpm for 5 minutes. The Tween was then removed and transferred to a 384-well clear-bottom plate and replaced with 15 μL isopropanol. Plates were again agitated for 5 minutes at RT, then isopropanol was transferred to the 384-well plate. Absorbance was then read at 590 nm on a plate reader, with 660 nm used as a reference. The ratio of Tween soluble MTT to isopropanol soluble (Tween-insoluble) MTT was calculated for each sample, then normalized to the vehicle group average.

Tau-Fyn interaction = Tau-Fyn interaction (Homo sapiens (Human), UniProt P10636); experiment: Tau-Fyn PLA screening in HEK-293 cells; assay type: cell-based; conditions: for PLA: Table 3, Tau-Fyn PLA; for Tau-Fyn interaction in cells, Tau-Fyn PLA in HEK-293 cells: compound 15 μM, 24 hours
Sequence of Tau-Fyn interaction (P10636 other isoform, or with tags, fused parts or gaps): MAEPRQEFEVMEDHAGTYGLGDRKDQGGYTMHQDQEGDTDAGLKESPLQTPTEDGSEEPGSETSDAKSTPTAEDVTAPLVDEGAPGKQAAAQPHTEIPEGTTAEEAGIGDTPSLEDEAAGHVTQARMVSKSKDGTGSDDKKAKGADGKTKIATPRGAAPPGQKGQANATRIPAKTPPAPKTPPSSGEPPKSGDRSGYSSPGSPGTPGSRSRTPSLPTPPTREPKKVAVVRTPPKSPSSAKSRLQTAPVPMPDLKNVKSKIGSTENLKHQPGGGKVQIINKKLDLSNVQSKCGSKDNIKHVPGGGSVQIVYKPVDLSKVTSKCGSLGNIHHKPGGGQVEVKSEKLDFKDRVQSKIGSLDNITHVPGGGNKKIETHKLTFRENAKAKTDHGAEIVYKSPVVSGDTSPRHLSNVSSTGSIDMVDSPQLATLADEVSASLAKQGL
Protocol: Tau-Fyn PLA screening in HEK-293 cells: For Tau-Fyn PLA in HEK-293 cells, we used the same plasmids as before (Rush, et al. (2020) Neurobiol Dis 134, 104668): human 4R2N Tau with an N-terminal mKate2 tag in a pcDNA3.1 vector and human Fyn with an N-terminal Myc tag in a pCMV-Sport6 vector grown in Stellar E. coli. HEK-293 cells were plated on coverslips coated with PDL and laminin in a 24-well plate in DMEM supplemented with 10% FBS and 1% PenStrep. Cells were transfected with 125 ng of Tau-mKate2 and Fyn plasmids with 1.5 μL Fugene in plain DMEM. After 24 hours, compound was applied at 15 μM. Twenty-four hours after application, cells were fixed. PLA protocol was the same as above except for different primary antibodies (Tau5 1:500, Fyn3 1:250). After image acquisition, PLA density was calculated as PLA puncta (as above) divided by cell area to account for differences in confluency. Cell area was defined with ImageJ as % Area after theresholding Tau-mKate2 fluorescence because it filled the cells evenly. Puncta/cell area was then normalized to vehicle-treated slides from that experiment.

[2] = Partition coefficient (LogD); assay type: physicochemical; conditions: Table 3; read-out: ADME LogD
Text: A computational analysis of the top five hits was then completed to assess the physical attributes of the compounds emerging from the HTS. The target profile for drug-like properties included evaluation of molecular weight (MW), total polar surface area (PSA, the surface sum of all polar atoms on the molecule), solubility, metabolic stability, and partition coefficient (LogD). In general, MW<[…] and PSA <70 Å^2 were targeted, which generally allows for blood-brain barrier (BBB) permeability. Compounds with PSA >100 A^2 are generally poor at permeating cell membranes. Solubility was targeted at >10 μM at pH 7.4 and 40-60% of compound remaining after 60 minutes of incubation in mouse or human liver microsomes (an indicator of compound stability after first-pass metabolism). LogD is the log of the ratio of concentrations of a compound in two immiscible solvents at equilibrium. Values ranging from 2-4 were targeted, typical for CNS drugs. Based on these criteria, compound no. 55 was selected as the top hit for optimization. Compound no.

[3] = Oral administration to mice, brain and plasma concentrations; assay type: in vivo; conditions: male CD1 mice; for presence in plasma and brain after oral administration: PO 5 mg/kg, 1, 2 and 4 hours; for brain/plasma ratio: PO 5 mg/kg
Protocol: Compounds were sent to Pharmaron to determine if they were blood-brain barrier permeable. Compounds were formulated to 1 mg/mL in 10% NMP, 60% PEG400, 30% saline, then male CD1 mice were treated PO at 5 mg/kg. Brain and plasma concentrations were measured using HPLC-MS at 1 hour, 2 hours, and 4 hours post-treatment.

[4] = Table 3, read-out: ADME t1/2 (min): MLMt1/2

O=C(CN1CCOc2ccccc21)Nc1nnc(-c2ccccn2)[nH]1 [compound 47, 2-(2,3-DIHYDRO-4H-BENZO[B][1,4]OXAZIN-4-YL)-N-(5-(PYRIDIN-2-YL)-4H-1,2,4-TRIAZOL-3-YL)ACETAMIDE]
ADME Sol (μM) (Solubility): Sol = 54 μM
Solubility (Solubility; pH 7.4, aqueous buffer, Table 2): 80.2 µM (≈ 27 µg/mL)
half-life ([1]; Table 2, read-out: MLM t1/2): 2 min
MTT (primary rat neurons): Active
PLA (Tau-Fyn interaction): Active
logD [2]: 1.8

O=C(CN1C(=O)CSc2cc(F)ccc21)Nc1nnc(-c2ccccn2)[nH]1 [compound no. 12, 2-(7-FLUORO-3-oxo-2H-BENZO[B][1,4]THIAZIN-4(3H)-YL)-N-(5-(PYRIDIN-2-YL)-4H-1,2,4-TRIAZOL-3-YL)ACETAMIDE]
ADME Sol (μM) (Solubility): Sol = 41 μM
half-life ([1]; Table 2, read-out: MLM t1/2): 146 min
half-life [1, 4]: 146 min
presence in plasma and brain after oral administration [3]: detected in plasma, it did not cross the BBB and was not present in brain
MTT (primary rat neurons): Active
Aβ toxicity / Aβ-induced membrane trafficking dysfunction, modified MTT assay (primary rat neurons): inhibited Aβ toxicity; also recorded: did ameliorate Aβ toxicity
PLA (Tau-Fyn interaction): Active
Tau-Fyn interaction in cells, Tau-Fyn PLA in HEK-293 cells (Tau-Fyn interaction): reduced Tau-Fyn interaction in cells
logD [2]: 2.4

O=C(CN1C(=O)CSc2cc(Cl)ccc21)Nc1nnc(-c2ccccn2)[nH]1 [compound no. 13, 2-(7-CHLORO-3-OXO-2H-BENZO[B][1,4]THIAZIN-4(3H)-YL)-N-(5-(PYRIDIN-2-YL)-4H-1,2,4-TRIAZOL-3-YL)ACETAMIDE]
MTT (primary rat neurons): Active
Aβ toxicity / Aβ-induced membrane trafficking dysfunction, modified MTT assay (primary rat neurons): inhibited Aβ toxicity; also recorded: did ameliorate Aβ toxicity
PLA (Tau-Fyn interaction): Active
Tau-Fyn interaction in cells, Tau-Fyn PLA in HEK-293 cells (Tau-Fyn interaction): reduced Tau-Fyn interaction in cells
logD [2]: 3.1

O=C(CN1C(=O)CSc2cc(F)c(F)cc21)Nc1nnc(-c2ccccn2)[nH]1 [compound no. 14, 2-(6,7-DIFLUORO-3-OXO-2H-BENZO[B][1,4]THIAZIN-4(3H)-YL)-N-(5-(PYRIDIN-2-YL)-4H-1,2,4-TRIAZOL-3-YL)ACETAMIDE]
MTT (primary rat neurons): Active
Aβ toxicity / Aβ-induced membrane trafficking dysfunction, modified MTT assay (primary rat neurons): did not ameliorate Aβ toxicity
PLA (Tau-Fyn interaction): Inactive
Tau-Fyn interaction in cells, Tau-Fyn PLA in HEK-293 cells (Tau-Fyn interaction): did not reduce Tau-Fyn interaction in cells
logD [2]: 1.9

O=C(CN1CCSc2ccccc21)Nc1nnc(-c2ccccn2)[nH]1 [compound no. 20, 2-(2H-BENZO[B][1,4]THIAZIN-4(3H)-YL)-N-(5-(PYRIDIN-2-YL)-4H-1,2,4-TRIAZOL-3-YL)ACETAMIDE]
ADME Sol (μM) (Solubility): Sol = 14 μM
half-life [1, 4]: 9 min
brain/plasma ratio [3]: 0.06
presence in plasma and brain after oral administration [3]: detected in both plasma and brain
MTT (primary rat neurons): Insoluble
logD [2]: 2.3

Cc1ccc2c(c1)SCC(=O)N2CC(=O)Nc1nnc(-c2ccccn2)[nH]1 [compound no. 23, 2-(7-METHYL-3-OXO-2H-BENZO[B][1,4]THIAZIN-4(3H)-YL)-N-(5-(PYRIDIN-2-YL)-4H-1,2,4-TRIAZOL-3-YL)ACETAMIDE]
ADME Sol (μM) (Solubility): Sol = 57 μM
MTT (primary rat neurons): Active
Aβ toxicity / Aβ-induced membrane trafficking dysfunction, modified MTT assay (primary rat neurons): inhibited Aβ toxicity; also recorded: did ameliorate Aβ toxicity
PLA (Tau-Fyn interaction): Active
Tau-Fyn interaction in cells, Tau-Fyn PLA in HEK-293 cells (Tau-Fyn interaction): reduced Tau-Fyn interaction in cells
logD [2]: 2.2

O=C(CN1CCCc2ccccc21)Nc1nnc(-c2ccccn2)[nH]1 [compound no. 45, 2-(3,4-DIHYDROQUINOLIN-1(2H)-YL)-N-(5-(PYRIDIN-2-YL)-4H-1,2,4-TRIAZOL-3-YL)ACETAMIDE]
MTT (primary rat neurons): Active
Aβ toxicity / Aβ-induced membrane trafficking dysfunction, modified MTT assay (primary rat neurons): inhibited Aβ toxicity; also recorded: did ameliorate Aβ toxicity
PLA (Tau-Fyn interaction): Active
Tau-Fyn interaction in cells, Tau-Fyn PLA in HEK-293 cells (Tau-Fyn interaction): reduced Tau-Fyn interaction in cells
logD [2]: 2.3

O=C(CCN1C(=O)CSc2ccccc21)Nc1nnc(-c2ccccn2)[nH]1 [compound no. 55]
Aβ toxicity / Aβ-induced membrane trafficking dysfunction, modified MTT assay (primary rat neurons): prevented Aβ-induced membrane trafficking dysfunction; also recorded: ameliorates Aβ toxicity; also recorded: inhibited Aβ toxicity
Tau-Fyn interaction in cells, Tau-Fyn PLA in HEK-293 cells (Tau-Fyn interaction): reduced Tau-Fyn interaction in cells

O=C(CN1CCOc2ccccc21)Nc1nnc(-c2ccccn2)[nH]1 [compound no. 69]
brain/plasma ratio [3]: 0.067
presence in plasma and brain after oral administration [3]: presence in both plasma and brain
Aβ toxicity / Aβ-induced membrane trafficking dysfunction, modified MTT assay (primary rat neurons): prevented Aβ-induced membrane trafficking dysfunction; also recorded: ameliorates Aβ toxicity; also recorded: inhibited Aβ toxicity
Tau-Fyn interaction in cells, Tau-Fyn PLA in HEK-293 cells (Tau-Fyn interaction): reduced Tau-Fyn interaction in cells

From patent US20250367209A1 (SOUTHERN RESEARCH INSTITUTE, priority 2022, published 2025)
